Source: patent US6054435A, “6-O-substituted macrolides having antibacterial activity” (priority 1999, dated 2000)
≈ marks a conversion by molar mass, not a printed value.

Experiments:
Assay in all cases: in vitro antibacterial activity (MIC), agar dilution
Assay type in all cases: cell-based
Candida albicans CCH 442 = conditions: organism code TT; BHI agar, 35-37° C., 20 to 24 hours; unit assumed
Method in brief: (§1)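 Endpoint: lowest concentration with no growth, slight haze or sparsely isolated colonies at the inoculum spot, judged against a compound-free BHI control. Strains were replicator-inoculated at 1:100 (1:10 for Streptococcus and other slow growers).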

[1] = system: Enterococcus faecium ATCC 8043; conditions: organism code II; BHI agar, 35-37° C., 20 to 24 hours; unit assumed
Method in brief: as §1

Escherichia coli DC-2 = conditions: organism code SS; BHI agar, 35-37° C., 20 to 24 hours; unit assumed
Method in brief: as §1

Escherichia coli JUHL = conditions: organism code QQ; BHI agar, 35-37° C., 20 to 24 hours; unit assumed
Method in brief: as §1

Escherichia coli SS = conditions: organism code RR; BHI agar, 35-37° C., 20 to 24 hours; unit assumed
Method in brief: as §1

[2] = system: Haemophilis Influenzae DILL AMP R; conditions: organism code WW; BHI agar, 35-37° C., 20 to 24 hours; unit assumed
Method in brief: as §1

[3] = system: Micrococcus luteus ATCC 4698; conditions: organism code PP; BHI agar, 35-37° C., 20 to 24 hours; unit assumed
Method in brief: (§2)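 Agar dilution in BHI agar, twelve successive compound dilutions. Inoculum 1:100, or 1:10 for slow-growing strains (e.g. Streptococcus), replicator-spotted. Read by eye; MIC = lowest concentration with no growth, slight haze or sparsely isolated colonies relative to growth control.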

[4] = system: Micrococcus luteus ATCC 9341; conditions: organism code OO; BHI agar, 35-37° C., 20 to 24 hours; unit assumed
Method in brief: as §2

[5] = system: Mycobacterium smegmatis ATCC 114; conditions: organism code UU; BHI agar, 35-37° C., 20 to 24 hours; unit assumed
Method in brief: as §1

[6] = system: Nocardia Asteroides ATCC9970; conditions: organism code VV; BHI agar, 35-37° C., 20 to 24 hours; unit assumed
Method in brief: as §1

[7] = system: Staphylococcus aureus 1775; conditions: organism code GG; BHI agar, 35-37° C., 20 to 24 hours; unit assumed
Method in brief: as §1

[8] = system: Staphylococcus aureus A-5278; conditions: organism code CC; BHI agar, 35-37° C., 20 to 24 hours; unit assumed
Method in brief: as §1

[9] = system: Staphylococcus aureus A5177; conditions: organism code BB; BHI agar, 35-37° C., 20 to 24 hours; unit assumed
Method in brief: as §1

[10] = system: Staphylococcus aureus ATCC 6538P; conditions: organism code AA; BHI agar, 35-37° C., 20 to 24 hours; unit assumed
Method in brief: as §1

[11] = system: Staphylococcus aureus CMX 553; conditions: organism code FF; BHI agar, 35-37° C., 20 to 24 hours; unit assumed
Method in brief: as §1

[12] = system: Staphylococcus aureus CMX 642A; conditions: organism code DD; BHI agar, 35-37° C., 20 to 24 hours; unit assumed
Method in brief: as §1

[13] = system: Staphylococcus aureus NCTC10649M; conditions: organism code EE; BHI agar, 35-37° C., 20 to 24 hours; unit assumed
Method in brief: as §1

[14] = system: Staphylococcus epidermidis 3519; conditions: organism code HH; BHI agar, 35-37° C., 20 to 24 hours; unit assumed
Method in brief: as §1

[15] = system: Streptococcus Pneumonia 5649; conditions: organism code ZZA; BHI agar, 35-37° C., 20 to 24 hours; unit assumed
Method in brief: as §1

[16] = system: Streptococcus Pneumonia 5979; conditions: organism code ZZ; BHI agar, 35-37° C., 20 to 24 hours; unit assumed
Method in brief: as §1

[17] = system: Streptococcus Pneumonia ATCC6303; conditions: organism code XX; BHI agar, 35-37° C., 20 to 24 hours; unit assumed
Method in brief: as §1

[18] = system: Streptococcus Pneumonia GYR 1171; conditions: organism code YY; BHI agar, 35-37° C., 20 to 24 hours; unit assumed
Method in brief: as §1

[19] = system: Streptococcus agalactiae CMX 508; conditions: organism code KK; BHI agar, 35-37° C., 20 to 24 hours; unit assumed
Method in brief: as §1

[20] = system: Streptococcus bovis A-5169; conditions: organism code JJ; BHI agar, 35-37° C., 20 to 24 hours; unit assumed
Method in brief: as §1

[21] = system: Streptococcus pyogenes 930; conditions: organism code MM; BHI agar, 35-37° C., 20 to 24 hours; unit assumed
Method in brief: as §1

[22] = system: Streptococcus pyogenes EES61; conditions: organism code LL; BHI agar, 35-37° C., 20 to 24 hours; unit assumed
Method in brief: as §1

[23] = system: Streptococcus pyogenes PIU 2548; conditions: organism code NN; BHI agar, 35-37° C., 20 to 24 hours; unit assumed
Method in brief: as §1

Row | SMILES | MIC (Candida albicans CCH 442) | MIC [1] | MIC (Escherichia coli DC-2) | MIC (Escherichia coli JUHL) | MIC (Escherichia coli SS) | MIC [2] | MIC [3] | MIC [4] | MIC [5] | MIC [6] | MIC [7] | MIC [8] | MIC [9] | MIC [10] | MIC [11] | MIC [12] | MIC [13] | MIC [14] | MIC [15] | MIC [16] | further results
1 | CC[C@H]1OC(=O)[C@H](C)C(=O)[C@H](C)[C@@H](O[C@@H]2O[C@H](C)C[C@H](N(C)C)[C@H]2O)[C@](C)(OC/C=C/c2ccc(-c3cncnc3)s2)C[C@@H](C)C(=O)[C@H](C)[C@H]2NC(=O)O[C@@]21C [Example 70] | > 100 µg/mL | 0.05 µg/mL (≈ 0.0626 µM) | 100 µg/mL (≈ 125 µM) | 100 µg/mL (≈ 125 µM) | 0.78 µg/mL (≈ 0.976 µM) | 4 µg/mL (≈ 5.01 µM) | 0.1 µg/mL (≈ 0.125 µM) | 0.02 µg/mL (≈ 0.025 µM) | 0.39 µg/mL (≈ 0.488 µM) | 0.02 µg/mL (≈ 0.025 µM) | > 100 µg/mL | > 100 µg/mL | 0.2 µg/mL (≈ 0.25 µM) | 0.1 µg/mL (≈ 0.125 µM) | 0.1 µg/mL (≈ 0.125 µM) | 0.1 µg/mL (≈ 0.125 µM) | 0.2 µg/mL (≈ 0.25 µM) | 0.1 µg/mL (≈ 0.125 µM) | 0.25 µg/mL (≈ 0.313 µM) | 4 µg/mL (≈ 5.01 µM) | MIC [17]: 0.015 µg/mL (≈ 0.0188 µM); MIC [18]: 0.015 µg/mL (≈ 0.0188 µM); MIC [19]: 0.02 µg/mL (≈ 0.025 µM); MIC [20]: 0.01 µg/mL (≈ 0.0125 µM); MIC [21]: 12.5 µg/mL (≈ 15.6 µM); MIC [22]: 0.01 µg/mL (≈ 0.0125 µM); MIC [23]: 0.1 µg/mL (≈ 0.125 µM)
2 | CC[C@H]1OC(=O)[C@H](C)C(=O)[C@H](C)[C@@H](O[C@@H]2O[C@H](C)C[C@H](N(C)C)[C@H]2O)[C@](C)(OC/C=C/c2cncc(-c3cncs3)c2)C[C@@H](C)C(=O)[C@H](C)[C@H]2NC(=O)O[C@@]21C [Example 52] | > 100 µg/mL | 0.01 µg/mL (≈ 0.0125 µM) | 25 µg/mL (≈ 31.3 µM) | 100 µg/mL (≈ 125 µM) | 0.39 µg/mL (≈ 0.488 µM) | 2 µg/mL (≈ 2.5 µM) | 0.2 µg/mL (≈ 0.25 µM) | 0.01 µg/mL (≈ 0.0125 µM) | 1.56 µg/mL (≈ 1.95 µM) | 0.02 µg/mL (≈ 0.025 µM) | > 100 µg/mL | > 100 µg/mL | 0.05 µg/mL (≈ 0.0626 µM) | 0.05 µg/mL (≈ 0.0626 µM) | 0.05 µg/mL (≈ 0.0626 µM) | 0.05 µg/mL (≈ 0.0626 µM) | 0.05 µg/mL (≈ 0.0626 µM) | 0.05 µg/mL (≈ 0.0626 µM) | 0.25 µg/mL (≈ 0.313 µM) | > 128 µg/mL | MIC [17]: ≤ 0.004 µg/mL; MIC [18]: ≤ 0.004 µg/mL; MIC [19]: ≤ 0.005 µg/mL; MIC [20]: 0.01 µg/mL (≈ 0.0125 µM); MIC [21]: 100 µg/mL (≈ 125 µM); MIC [22]: 0.02 µg/mL (≈ 0.025 µM); MIC [23]: 0.1 µg/mL (≈ 0.125 µM)
3 | CC[C@H]1OC(=O)[C@H](C)C(=O)[C@H](C)[C@@H](O[C@@H]2O[C@H](C)C[C@H](N(C)C)[C@H]2O)[C@](C)(OCC#Cc2ccc(-c3nccs3)s2)C[C@@H](C)C(=O)[C@H](C)[C@H]2NC(=O)O[C@@]21C [Example 28] | > 100 µg/mL | 0.05 µg/mL (≈ 0.0623 µM) | 12.5 µg/mL (≈ 15.6 µM) | 25 µg/mL (≈ 31.2 µM) | 0.1 µg/mL (≈ 0.125 µM) | 2 µg/mL (≈ 2.49 µM) | 0.1 µg/mL (≈ 0.125 µM) | 0.01 µg/mL (≈ 0.0125 µM) | 0.2 µg/mL (≈ 0.249 µM) | 0.05 µg/mL (≈ 0.0623 µM) | > 100 µg/mL | > 100 µg/mL | 0.05 µg/mL (≈ 0.0623 µM) | 0.05 µg/mL (≈ 0.0623 µM) | 0.05 µg/mL (≈ 0.0623 µM) | 0.05 µg/mL (≈ 0.0623 µM) | 0.1 µg/mL (≈ 0.125 µM) | 0.05 µg/mL (≈ 0.0623 µM) | 0.25 µg/mL (≈ 0.312 µM) | 1 µg/mL (≈ 1.25 µM) | MIC [17]: 0.03 µg/mL (≈ 0.0374 µM); MIC [18]: 0.03 µg/mL (≈ 0.0374 µM); MIC [19]: 0.02 µg/mL (≈ 0.0249 µM); MIC [20]: ≤ 0.005 µg/mL; MIC [21]: 12.5 µg/mL (≈ 15.6 µM); MIC [22]: ≤ 0.005 µg/mL; MIC [23]: 0.1 µg/mL (≈ 0.125 µM)
